Results reported in patent US12325688B2, “Gingerenone A prodrugs as sensotherapeutics and methods of use” (The U.S.A., as Represented by the Secretary, Department of …, priority 2022, dated 2025).
“Also recorded” adds a separate entry of the source.

Tests used:
Assay type in all cases: cell-based, human
[1] = tested on: IR-induced senescent WI-38 fibroblasts; assay: MTT cell viability assay, senescent cells; settings: for senolytic activity (selective decrease of viability of senescent cells): components at 100 μM, 6-shogaol 3.6 μM, 8-shogaol 33 μM, 6-gingerol 20 μM; for senescent cell viability: D+Q 250 nM dasatinib + 10 μM quercetin, gingerenone A 20 μM, 6-shogaol 72.4 nM
Description: Cell culture and treatments: WI-38 human diploid fibroblasts (HDFs) were cultured in Dulbecco's modified Eagle's medium (DMEM) supplemented with 10% heat-inactivated fetal bovine serum (FBS), penicillin and streptomycin, and non-essential amino acids at 37° C. in a 5% CO2 incubator. HDFs were rendered senescent by exposure to 10 Gy of ionizing radiation (IR) and then cultured for an additional ten days. Proliferating and senescent WI-38 cells were seeded in triplicate overnight at 2×10^5 cells/well (in 6 well plates) to achieve ˜-60% confluence by the next day. Cells were then treated with the extracts for times indicated. […]
MTT cell viability: The MTT assay (BioVision Milpitas, CA) was carried out following the manufacturer's protocol. Briefly, the media was gently removed from each well and 50 μl of serum-free medium+50 μl of Solution A were added to each well. The plates were incubated at 37° C. for MTT reduction into formazan for 3 h. Next, 150 μl Solution B was added to each well and the plate was covered with foil and shaken at 600 rpm for 15 min. The absorbance was measured at 590 nm using Enspire, Perkin Elmer Multimode plate reader. […]
WI-38 fibroblasts were rendered senescent by exposure to ionizing radiation (IR, 10 Gy) and cultured for an additional 10 days. […] Data represent the means and standard error from three biological replicates. The major components of ginger extract, namely 6-gingerol, 8-gingerol, 10-gingerol, 6-shogaol, 8-shogaol, gingerenone A, and zingerone, were screened for their ability to selectively decrease cell viability of senescent cells using the MTT assay (FIG. 10A).

[2] = tested on: proliferating WI-38 fibroblasts; assay: MTT cell viability assay, proliferating cells; settings: 48 h; D+Q 250 nM dasatinib + 10 μM quercetin, gingerenone A 20 μM, 6-shogaol 72.4 nM
Description: Cell culture and treatments: WI-38 human diploid fibroblasts (HDFs) were cultured in Dulbecco's modified Eagle's medium (DMEM) supplemented with 10% heat-inactivated fetal bovine serum (FBS), penicillin and streptomycin, and non-essential amino acids at 37° C. in a 5% CO2 incubator. HDFs were rendered senescent by exposure to 10 Gy of ionizing radiation (IR) and then cultured for an additional ten days. Proliferating and senescent WI-38 cells were seeded in triplicate overnight at 2×10^5 cells/well (in 6 well plates) to achieve ˜-60% confluence by the next day. Cells were then treated with the extracts for times indicated.
In 24-well plates, cells were treated with multiple dilutions (1:200 and 1:500) of Harpagophytum procumbens (Devil's Claw) (herb to menstruum ratio, 1:3), Uncaria tomentosa (Cat's Claw) (herb to menstruum ratio, 1:3), Zingiber officinale Rosc. […]
MTT cell viability: The MTT assay (BioVision Milpitas, CA) was carried out following the manufacturer's protocol. […] The absorbance was measured at 590 nm using Enspire, Perkin Elmer Multimode plate reader.
Four plant extracts were screened for senolytic activity, including extracts from Harpagophytum procumbens (Devil's Claw), Uncaria tomentosa (Cat's Claw), Zingiber officinale Rosc. […] In FIG. 8B, the impact on ginger extract on proliferating and senescent cells on cell survival was assessed by the MTT cell viability assay.

[3] = tested on: proliferating and senescent WI-38 fibroblasts; assay: Western blot of apoptotic pathway proteins; settings: 48 h; for expression of anti-apoptotic protein Bcl-XL / levels of pro-apoptotic protein cleaved caspase-3: senescent cells
Description: Protein analysis: Cells were lysed in RIPA lysis buffer (Pierce, ThermoFisher) containing protease and phosphatase inhibitors (Roche) and incubated on ice for 10 min. The lysates were then sonicated for 5 min and centrifuged for 10 min at 4° C. to remove the insoluble fraction. The remaining supernatant was the whole-cell lysate. Lysates were separated by SDS-polyacrylamide gel electrophoresis (SDS-PAGE) and transferred onto nitrocellulose membranes (Biorad). Incubations with primary antibodies recognizing p21, p53, Beta-Actin (ACTB) (Santa Cruz Biotechnology), as well as caspase-3 (Abcam) and Bcl-XL (Cell Signaling) were followed by incubations with the appropriate secondary antibodies conjugated with horseradish peroxidase (GE Healthcare). Signals were developed using Enhanced Chemiluminescence (ECL) and acquired by using the ChemiDoc MP Imaging System (BioRad).
The effects of gingerenone A, 6-shogaol and D+Q on cytokines and chemokines that are known to be part of the senescence-associated secretory phenotype (SASP) were tested. WI-38 fibroblasts were rendered senescent by exposure to ionizing radiation (IR, 10 Gy) and cultured for an additional 10 days. Cells were then treated with gingerenone A (20 μM) and 6-shogaol (72.4 nM) and incubated for 24 h. CCL-2 (MCP-1) and IL-10 were measured using the Bio-plex (Multiplex); IL6 was measured using Quantikine IL-6 (R&D) (FIG. 12A). Data were normalized to cell number/total protein content. Data in graphs represent the means and standard error from three biological replicates. […] Ratios of cleaved pro-caspase 3 to total caspase 3, normalized to ACTB levels, are shown as relative to control proliferating cells. Cytokines (FIG. 13A) and chemokines (FIG. 13B) were measured using the V-plex panel (MSD) after treatment for 24 h with the indicated drugs. Relative secretion was measured as pg/ml vs control normalized on TE. Data in the graphs represent the means and standard error from three biological replicates.
To determine whether gingerenone A and 6-shogaol might influence the apoptotic pathway, their effect on the levels of cleaved caspase-3 (pro-apoptotic marker), and Bcl-XL (anti-apoptotic protein) (FIG. 12B) was tested. […] However, D+Q, gingerenone A, and 6-shogaol all reduced the expression of the anti-apoptotic protein Bcl-XL in senescent cells (FIG. 12B, right).

[4] = tested on: senescent WI-38 fibroblasts; assay: Secreted SASP cytokines and chemokines (ELISA, multiplex, V-PLEX)
Description: Secreted protein analysis—ELISA, Luminex Multiplex and V-PLEX: Media was collected at the earliest timepoint (24 h after treatments) to avoid cell death that could interfere with the assay. The media was centrifuged at 1000×g for 5 min to remove debris. The secretion of IL-6 was measured by the Quantikine ELISA Kit (R&D systems) and the expression of pro-inflammatory cytokines and chemokines [IL-6, TNFα, CCL2 (MCP-1), IL-8, IFNβ] was also assessed by multiplex assays (customized Luminex plate, R&D) according to the manufacturer's instructions. The V-PLEX Plus Proinflammatory Panel 1 Human Kit and the Chemokine Panel 1 preparation and detection were carried out following the manufacturer's protocol (Mesoscale Diagnostics) using >80% confluency of proliferating or senescent cells on 24-well plates. Briefly, different concentrations of standards and samples were added to the plates, and they were incubated for 2 h on a microplate shaker. The plates were washed, and the corresponding detection antibody mixture was added to each well and incubated for 1 h with shaking. The plates were washed twice then Read buffer was added to each well. The plates were read on the MESO Quickplex SQ 120 (MSD, Rockville, MD) and protein concentrations were determined using MSD Discovery workbench 4.0. The effects of gingerenone A, 6-shogaol and D+Q on cytokines and chemokines that are known to be part of the senescence-associated secretory phenotype (SASP) were tested. WI-38 fibroblasts were rendered senescent by exposure to ionizing radiation (IR, 10 Gy) and cultured for an additional 10 days. Cells were then treated with gingerenone A (20 μM) and 6-shogaol (72.4 nM) and incubated for 24 h. CCL-2 (MCP-1) and IL-10 were measured using the Bio-plex (Multiplex); IL6 was measured using Quantikine IL-6 (R&D) (FIG. 12A). Data were normalized to cell number/total protein content. Data in graphs represent the means and standard error from three biological replicates. […] Ratios of cleaved pro-caspase 3 to total caspase 3, normalized to ACTB levels, are shown as relative to control proliferating cells. Cytokines (FIG. 13A) and chemokines (FIG. 13B) were measured using the V-plex panel (MSD) after treatment for 24 h with the indicated drugs. Relative secretion was measured as pg/ml vs control normalized on TE. Data in the graphs represent the means and standard error from three biological replicates.

For `CCCCC[C@H](O)CC(=O)CCc1ccc(O)c(OC)c1` [6-gingerol], the “senolytic activity (selective decrease of viability of senescent cells)” value ([1]; 72 h) was “only 6-shogaol and gingerenone A displayed senolytic activity”.

For `CCCCC/C=C/C(=O)CCc1ccc(O)c(OC)c1` [6-shogaol], the “effect on proliferating (non-irradiated) cells” value [2] was “significant increase”, the “expression of anti-apoptotic protein Bcl-XL” value [3] was “reduced” and the “levels of pro-apoptotic protein cleaved caspase-3” value [3] was “increase”. For the same compound, the senescent cell viability ([1]; 48 h) was “moderate degree of cell death”, the “senolytic activity (selective decrease of viability of senescent cells)” value ([1]; 72 h) was “displayed senolytic activity” and the “changes in any of the cytokines and chemokines measured” value ([4]; 24 h, 72.4 nM) was “did not induce major changes”.

`CCCCCCC[C@H](O)CC(=O)CCc1ccc(O)c(OC)c1` [8-gingerol] was tested, and the “senolytic activity (selective decrease of viability of senescent cells)” value ([1]; 72 h) was “only 6-shogaol and gingerenone A displayed senolytic activity”.

With `CCCCCCC/C=C/C(=O)CCc1ccc(O)c(OC)c1` [8-shogaol] the “senolytic activity (selective decrease of viability of senescent cells)” value ([1]; 72 h) was “only 6-shogaol and gingerenone A displayed senolytic activity”.

`CCCCCCCCC[C@H](O)CC(=O)CCc1ccc(O)c(OC)c1` [10-gingerol] was tested, and the “senolytic activity (selective decrease of viability of senescent cells)” value ([1]; 72 h) was “only 6-shogaol and gingerenone A displayed senolytic activity”.

For `COc1cc(CC/C=C/C(=O)CCc2ccc(O)c(OC)c2)ccc1O` [gingerenone A, Gingerenone A], the “effect on proliferating (non-irradiated) cells” value [2] was “did not show any significant effect”, the p53 levels ([3]; proliferating and senescent cells) was “did not increase” and the “expression of anti-apoptotic protein Bcl-XL” value [3] was “reduced”. For the same compound, the “levels of pro-apoptotic protein cleaved caspase-3” value [3] was “increase”, the “senescent cell viability relative to proliferating cells” value ([1]; 20 μM, 48 h) was “significant decrease; also recorded: significantly decreased” and the “selectivity for senescent over proliferating cells” value ([1]; 48 h, 20 μM, compared to D+Q) was “higher selectivity compared to D+Q”. For the same compound, the senescent cell viability ([1]; 48 h) was “significantly decreased”, the “senolytic activity (selective decrease of viability of senescent cells)” value ([1]; 72 h) was “displayed senolytic activity” and the IC50 ([1]; Homo sapiens, WI-38, light or radiation study, dose response 2.5-100 μM, 72 h, 10 days post-irradiation) was 19.6 ± 2.1 µM. The “level of anti-inflammatory cytokine IL-13” value ([4]; 24 h, FIG. 13A) was “increased”, the “level of pro-inflammatory cytokine IL-8” value ([4]; 24 h, FIG. 13A) was “increased” and the “level of IL-10” value ([4]; 24 h, V-plex, FIG. 13A) was “unchanged”. For the same compound, the “level of IL-10, listed with IL-8 as pro-inflammatory cytokine” value ([4]; 24 h, V-plex, FIG. 13A) was “increased”, the “secreted level of interferon γ-induced protein 10 (IP-10)” value ([4]; 24 h, V-plex, FIG. 13B) was “reduced” and the “level of anti-inflammatory cytokine IL-10” value ([4]; 24 h, multiplex ELISA (Bio-plex), FIG. 12A) was “increase”. For the same compound, the “secreted level of CCL2 (MCP-1)” value ([4]; 24 h, gingerenone A 20 μM, D+Q) was “reduced”, the “secreted level of IL-6” value ([4]; 24 h, gingerenone A 20 μM, D+Q) was “reduced” and the “secretion of pro-inflammatory SASP cytokine IL-1B” value ([4]; senescent cells) was “increase”.

For `COc1cc(CCC(C)=O)ccc1O` [zingerone], the “senolytic activity (selective decrease of viability of senescent cells)” value ([1]; 72 h) was “only 6-shogaol and gingerenone A displayed senolytic activity”.
